ChEMBL document CHEMBL1128846, “Synthesis and pharmacological activity of conformationally restricted, acetylenic retinoid analogs” (Bioorg Med Chem Lett, 1995)

Legend:
Mus musculus = experiment: In vivo inhibition of TPA-induced ornithine decarboxylase (ODC) activity in hairless mouse skin; assay type: functional
[1] = biological target: T1, Retinoic acid receptor beta (Homo sapiens, UniProt P10826); experiment: Transcriptional activation of retinoic acid receptor RAR beta; not active
T1 sequence (P10826 whole entry): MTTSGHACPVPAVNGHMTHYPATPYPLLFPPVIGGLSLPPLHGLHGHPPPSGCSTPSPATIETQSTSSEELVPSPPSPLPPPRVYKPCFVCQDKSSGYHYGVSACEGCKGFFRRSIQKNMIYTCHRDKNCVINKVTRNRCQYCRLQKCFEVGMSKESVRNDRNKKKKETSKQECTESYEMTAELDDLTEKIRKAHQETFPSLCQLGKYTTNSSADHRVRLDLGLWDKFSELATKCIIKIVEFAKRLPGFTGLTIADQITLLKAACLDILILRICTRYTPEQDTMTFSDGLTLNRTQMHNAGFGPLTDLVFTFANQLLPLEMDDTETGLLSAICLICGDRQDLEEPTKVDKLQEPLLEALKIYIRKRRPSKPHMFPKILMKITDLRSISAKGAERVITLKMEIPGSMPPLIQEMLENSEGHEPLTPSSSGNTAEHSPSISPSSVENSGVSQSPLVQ

[2] = biological target: T2, Retinoic acid receptor alpha (Homo sapiens, UniProt P10276); experiment: Transcriptional activation of retinoic acid receptor RAR alpha; not active
T2 sequence (P10276 whole entry): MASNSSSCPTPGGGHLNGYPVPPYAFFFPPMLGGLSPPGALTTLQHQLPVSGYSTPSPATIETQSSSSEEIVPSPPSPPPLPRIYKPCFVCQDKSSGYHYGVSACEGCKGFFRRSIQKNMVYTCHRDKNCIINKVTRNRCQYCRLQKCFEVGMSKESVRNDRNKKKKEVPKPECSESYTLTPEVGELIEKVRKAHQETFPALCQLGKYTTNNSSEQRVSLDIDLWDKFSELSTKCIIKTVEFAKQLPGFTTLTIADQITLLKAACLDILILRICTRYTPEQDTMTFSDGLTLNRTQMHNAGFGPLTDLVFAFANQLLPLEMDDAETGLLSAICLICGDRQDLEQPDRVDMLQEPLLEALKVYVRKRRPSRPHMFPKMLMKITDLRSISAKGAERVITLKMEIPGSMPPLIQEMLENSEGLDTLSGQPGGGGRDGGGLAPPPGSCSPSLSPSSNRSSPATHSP

[3] = biological target: T3, Retinoic acid receptor gamma (Homo sapiens, UniProt P13631); experiment: Transcriptional activation of retinoic acid receptor RAR gamma; not active
T3 sequence (P13631 whole entry): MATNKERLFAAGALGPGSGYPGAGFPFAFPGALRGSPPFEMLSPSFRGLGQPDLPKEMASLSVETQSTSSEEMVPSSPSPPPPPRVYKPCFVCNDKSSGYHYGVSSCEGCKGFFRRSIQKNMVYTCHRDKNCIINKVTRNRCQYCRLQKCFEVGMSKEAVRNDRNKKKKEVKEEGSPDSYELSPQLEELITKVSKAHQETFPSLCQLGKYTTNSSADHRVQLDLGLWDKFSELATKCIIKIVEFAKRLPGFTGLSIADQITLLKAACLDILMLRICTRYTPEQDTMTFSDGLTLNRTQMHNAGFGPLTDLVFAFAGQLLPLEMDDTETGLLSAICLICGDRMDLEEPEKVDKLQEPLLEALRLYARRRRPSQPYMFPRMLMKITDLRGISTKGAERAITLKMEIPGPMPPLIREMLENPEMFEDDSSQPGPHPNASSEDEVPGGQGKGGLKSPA

[4] = biological target: T4, Retinoic acid receptor RXR-alpha (Homo sapiens, UniProt P19793); experiment: Transcriptional activation of retinoid X receptor RXR alpha; not active
T4 sequence (P19793 whole entry): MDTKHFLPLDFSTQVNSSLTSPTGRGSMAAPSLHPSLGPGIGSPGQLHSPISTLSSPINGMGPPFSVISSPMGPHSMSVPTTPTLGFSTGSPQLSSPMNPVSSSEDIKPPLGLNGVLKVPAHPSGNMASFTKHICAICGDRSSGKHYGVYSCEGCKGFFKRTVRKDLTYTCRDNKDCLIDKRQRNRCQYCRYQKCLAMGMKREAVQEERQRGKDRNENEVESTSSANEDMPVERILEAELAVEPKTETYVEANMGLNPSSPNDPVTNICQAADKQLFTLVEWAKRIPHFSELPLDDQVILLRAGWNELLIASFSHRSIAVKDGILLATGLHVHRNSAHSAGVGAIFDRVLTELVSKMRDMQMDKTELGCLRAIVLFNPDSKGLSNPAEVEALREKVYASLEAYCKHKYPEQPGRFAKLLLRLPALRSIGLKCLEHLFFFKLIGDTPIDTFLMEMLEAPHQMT

[5] = biological target: T1, Retinoic acid receptor beta; experiment: (§1) Transcriptional activation of retinoic acid receptor RAR beta
[6] = biological target: T3, Retinoic acid receptor gamma; experiment: Transcriptional activation of retinoic acid receptor RAR gamma
[7] = biological target: T1, Retinoic acid receptor beta; experiment: as §1; remark: listed apart in the source
[8] = biological target: T2, Retinoic acid receptor alpha; experiment: Transcriptional activation of retinoic acid receptor RAR alpha

EC50 [2] [µM] | EC50 [4] [µM] | Compound | IC80 (Mus musculus) [nmol] | other results
– | – | CCOC(=O)c1ccc(C#C/C=C/C2=C(C)CCCC2(C)C)s1 | 30 | –
> 10 | > 10 | CC1=C(/C=C/C#Cc2ccccc2C(=O)O)C(C)(C)CCC1 | > 1000 | EC50 [1]: > 10 µM; EC50 [3]: > 10 µM
– | – | CCOC(=O)c1ccccc1C#C/C=C/C1=C(C)CCCC1(C)C | > 1000 | –
> 10 | > 10 | CC1=C(/C=C/C#Cc2cccc(C(=O)O)c2)C(C)(C)CCC1 | 890 | EC50 [1]: > 10 µM; EC50 [3]: > 10 µM
> 10 | – | CC1=C(/C=C/C#Cc2ccc(C(=O)O)cn2)C(C)(C)CCC1 | 14.8 | EC50 [5]: > 0.005 µM; EC50 [6]: > 0.015 µM
– | – | CCOC(=O)c1ccc(C#C/C=C/C2=C(C)CCCC2(C)C)o1 | > 300 | –
– | – | CCOC(=O)c1ccc2cc(C#CC3=C(C)CCCC3(C)C)ccc2c1 | 131 | –
– | – | CCOC(=O)c1ccc(C#C/C=C/C2=C(C)CCCC2(C)C)nc1 | 5.3 | –
– | – | CCOC(=O)c1cccc(C#C/C=C/C2=C(C)CCCC2(C)C)c1 | > 1000 | –
> 10 | > 10 | CC1=C(C#Cc2ccc3cc(C(=O)O)ccc3c2)C(C)(C)CCC1 | 215 | EC50 [5]: 0.355 µM; EC50 [7]: 0.93 µM
– | 10 | CC1=C(/C=C/C#Cc2ccc(C(=O)O)cc2)C(C)(C)CCC1 | 0.46 | EC50 [5]: 0.002 µM; EC50 [8]: 0.598 µM; EC50 [6]: 0.01 µM
– | 10 | C/C(=C\c1ccc(C(=O)O)cc1)c1ccc2c(c1)C(C)(C)CCC2(C)C | – | –
– | – | CCOC(=O)c1ccc(C#C/C=C/C2=C(C)CCCC2(C)C)cc1 | 1.3 | –
